These results are taken from ChEMBL document CHEMBL1201862, “PubChem BioAssay data set” (2004).

Activity calls are given as the source filed them.

For orientation: EC50 means the midpoint of the concentration-response curve. As usually defined, the IC50 is the concentration that gives 50% inhibition. What is called CC50 is the concentration giving 50% cytotoxicity. A word on the AC50: it is the concentration giving half of the maximal activity seen. What is called Ki is the equilibrium dissociation constant of an inhibitor or competing ligand from its target. A word on the pKi: it is the Ki on a negative log10 scale, so that one unit is a factor of ten. A higher pKi goes with a small Ki.

A short description of one assay: cells. In kind it is functional, cell-based.
Another assay concerns the target Genome polyprotein (dengue virus type 2, UniProt P29990). The assay is described as follows: Dengue-2 NS5 methyltransferase inhibitors, primary screen, biochemical, confirmation dose response (AID 588689). In kind it is functional.
The test system of a further assay is Vero. The assay is described as follows: Vero cell cytotoxicity, cytotoxicity control for flavivirus capping enzyme inhibitors (AID 588742). In kind it is functional. The conditions noted are these: Chlorocebus sabaeus.
The test system of a further assay is A-375. Put plainly: MITF: Counter assay: A375 proliferation Measured in Cell-Based System Using Plate Reader - 2084-03_Inhibitor_Dose_DryPowder_Activity. [Related pubchem assays (depositor defined):AID488944]. In kind it is functional. The conditions noted are these: Homo sapiens.
The next assay addresses T1, Insulin-degrading enzyme (Homo sapiens, UniProt P14735).
T1 sequence (P14735 whole entry): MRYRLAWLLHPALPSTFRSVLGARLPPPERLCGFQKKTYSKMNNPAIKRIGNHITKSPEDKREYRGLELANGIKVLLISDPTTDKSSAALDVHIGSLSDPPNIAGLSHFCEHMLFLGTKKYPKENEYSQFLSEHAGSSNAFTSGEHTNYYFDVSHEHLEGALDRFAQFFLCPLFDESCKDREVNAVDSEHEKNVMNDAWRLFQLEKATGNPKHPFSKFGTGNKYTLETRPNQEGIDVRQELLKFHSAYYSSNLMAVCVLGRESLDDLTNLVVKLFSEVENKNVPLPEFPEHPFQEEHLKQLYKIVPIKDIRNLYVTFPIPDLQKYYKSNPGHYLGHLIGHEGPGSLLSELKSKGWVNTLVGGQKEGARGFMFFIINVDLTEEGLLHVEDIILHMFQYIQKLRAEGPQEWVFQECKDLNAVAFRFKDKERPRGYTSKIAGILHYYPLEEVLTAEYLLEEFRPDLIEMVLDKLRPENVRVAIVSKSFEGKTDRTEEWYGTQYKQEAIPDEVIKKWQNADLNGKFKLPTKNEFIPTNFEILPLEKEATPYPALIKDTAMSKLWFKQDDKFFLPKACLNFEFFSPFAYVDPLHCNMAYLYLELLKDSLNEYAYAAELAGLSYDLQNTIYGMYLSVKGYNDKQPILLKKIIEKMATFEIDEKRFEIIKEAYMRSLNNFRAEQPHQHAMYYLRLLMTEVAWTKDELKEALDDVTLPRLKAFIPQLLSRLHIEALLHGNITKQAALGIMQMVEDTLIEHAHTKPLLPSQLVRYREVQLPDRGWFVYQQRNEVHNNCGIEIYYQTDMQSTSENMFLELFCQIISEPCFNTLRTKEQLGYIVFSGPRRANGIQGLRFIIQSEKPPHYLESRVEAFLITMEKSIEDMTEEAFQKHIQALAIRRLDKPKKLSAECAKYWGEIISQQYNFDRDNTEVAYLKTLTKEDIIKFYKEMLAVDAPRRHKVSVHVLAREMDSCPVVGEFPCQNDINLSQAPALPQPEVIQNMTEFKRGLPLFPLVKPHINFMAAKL
The assay is described as follows: activators of recombinant IDE enzyme, dose response, counter-screen for IDE activator project, biochemical, fluorescence polarization (AID 588681). For orientation: A counterscreen serves to expose hits that act by an unwanted route or on another target.

Assay [1] can be described thus: HEK293T cytotoxicity, dose response, cytotoxicity control for miR-122 modulator project, cell-based, activator set, cherry-pick (AID 720690).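 Note: HEK293T human cells scored for general mammalian cytotoxicity.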 Format: functional.
Assay [2] can be described thus: cytotoxicity toward DRD oncogenic fibroblasts, dose response, cell-based, non-viral oncogenic, luminescence (AID 1934). Format: functional. The conditions noted are these: Homo sapiens.
The target in the next assay is T2, CAAX prenyl protease 2 (Homo sapiens, UniProt Q9Y256).
T2 sequence (Q9Y256 whole entry): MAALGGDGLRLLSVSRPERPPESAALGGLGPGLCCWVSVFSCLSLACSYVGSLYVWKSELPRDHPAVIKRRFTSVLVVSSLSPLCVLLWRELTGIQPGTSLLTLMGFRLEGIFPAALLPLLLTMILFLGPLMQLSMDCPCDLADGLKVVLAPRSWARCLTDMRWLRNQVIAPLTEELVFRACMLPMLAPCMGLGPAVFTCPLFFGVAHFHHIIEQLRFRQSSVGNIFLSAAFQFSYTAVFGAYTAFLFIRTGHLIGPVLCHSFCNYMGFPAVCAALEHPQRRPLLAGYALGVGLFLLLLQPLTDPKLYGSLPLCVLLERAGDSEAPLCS
Put plainly: human Rce1 protease inhibitors, dose response, biochemical, yeast membranes, quenched-peptide fluorescence, cherry-pick (AID 588849).

Assay [3] concerns the target Cyclin-dependent kinase 2 (Homo sapiens, UniProt P24941). Format: functional.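 Note: CDK2 measured as one member of a broad kinome profiling panel.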
Assay [4] has as its target Serine/threonine-protein phosphatase (Homo sapiens, UniProt Q9BPW0). The assay is described as follows: PP5 phosphatase inhibitors, dose response, biochemical, fluorescence (AID 2395).
Assay [5] addresses Serine/threonine-protein phosphatase PP1-alpha catalytic subunit (Homo sapiens, UniProt P62136). Put plainly: PP1 phosphatase inhibitors, dose response, biochemical, fluorescence (AID 2394).
In assay [6] the target is T3, Sentrin-specific protease 8 (Homo sapiens, UniProt Q96LD8).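 Note: luminescence read-out of SENP8 inhibition, dose-response confirmation following an ultra-high-throughput screen.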
T3 sequence (Q96LD8 whole entry): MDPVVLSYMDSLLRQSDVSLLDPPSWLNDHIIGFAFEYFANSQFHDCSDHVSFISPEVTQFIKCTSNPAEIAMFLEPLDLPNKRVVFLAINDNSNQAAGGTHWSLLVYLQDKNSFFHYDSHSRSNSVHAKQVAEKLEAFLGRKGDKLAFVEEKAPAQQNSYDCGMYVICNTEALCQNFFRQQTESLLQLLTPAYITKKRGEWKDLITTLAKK
In kind it is functional.

Assay [7] addresses T4, Tyrosyl-DNA phosphodiesterase 2 (Homo sapiens, UniProt O95551).
T4 sequence (O95551 whole entry): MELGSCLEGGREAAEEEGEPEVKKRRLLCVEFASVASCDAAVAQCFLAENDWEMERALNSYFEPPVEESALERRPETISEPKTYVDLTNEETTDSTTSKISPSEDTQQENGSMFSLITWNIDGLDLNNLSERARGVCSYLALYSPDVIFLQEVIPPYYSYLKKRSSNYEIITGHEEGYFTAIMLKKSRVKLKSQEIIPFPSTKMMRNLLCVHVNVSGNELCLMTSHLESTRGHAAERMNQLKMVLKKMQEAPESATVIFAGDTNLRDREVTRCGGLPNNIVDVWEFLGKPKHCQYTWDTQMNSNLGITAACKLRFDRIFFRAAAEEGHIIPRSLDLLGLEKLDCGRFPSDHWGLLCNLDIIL
Put plainly: human TDP2 enzyme inhibitors, dose response, biochemical, epi absorbance, IC50 (AID 743297).

Assay [8] in a line: Vero E6 cell cytotoxicity, dose response, cytotoxicity control for non-replicating M. tuberculosis project, secondary assay (AID 492998). Format: functional, VeroE6. The conditions noted are these: Vero C1008.

Chain of Genome polyprotein (P29990 2492-3391 limits assumed): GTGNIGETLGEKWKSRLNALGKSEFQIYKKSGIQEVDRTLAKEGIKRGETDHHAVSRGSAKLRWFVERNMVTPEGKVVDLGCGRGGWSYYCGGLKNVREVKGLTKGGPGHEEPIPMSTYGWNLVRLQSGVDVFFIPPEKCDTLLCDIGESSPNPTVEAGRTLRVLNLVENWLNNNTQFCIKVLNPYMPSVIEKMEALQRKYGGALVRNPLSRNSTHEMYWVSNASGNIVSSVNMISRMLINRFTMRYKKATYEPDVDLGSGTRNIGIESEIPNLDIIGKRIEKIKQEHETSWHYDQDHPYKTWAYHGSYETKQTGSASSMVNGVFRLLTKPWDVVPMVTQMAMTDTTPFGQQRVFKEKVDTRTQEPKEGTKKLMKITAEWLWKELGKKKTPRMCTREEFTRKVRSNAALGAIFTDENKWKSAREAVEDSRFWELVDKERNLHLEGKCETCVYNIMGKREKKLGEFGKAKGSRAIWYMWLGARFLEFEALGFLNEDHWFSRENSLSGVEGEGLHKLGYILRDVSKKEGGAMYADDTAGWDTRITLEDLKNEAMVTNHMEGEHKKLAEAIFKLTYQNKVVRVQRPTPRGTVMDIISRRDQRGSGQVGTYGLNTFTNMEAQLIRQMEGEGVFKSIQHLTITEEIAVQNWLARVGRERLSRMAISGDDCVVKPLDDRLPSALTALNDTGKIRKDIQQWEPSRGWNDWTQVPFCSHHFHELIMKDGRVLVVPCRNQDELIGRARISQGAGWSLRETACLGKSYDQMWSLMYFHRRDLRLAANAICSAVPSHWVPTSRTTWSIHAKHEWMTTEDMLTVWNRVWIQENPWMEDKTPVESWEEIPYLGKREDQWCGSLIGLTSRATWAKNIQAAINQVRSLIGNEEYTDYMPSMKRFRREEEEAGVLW
Chain of Serine/threonine-protein phosphatase (Q9BPW0 whole entry): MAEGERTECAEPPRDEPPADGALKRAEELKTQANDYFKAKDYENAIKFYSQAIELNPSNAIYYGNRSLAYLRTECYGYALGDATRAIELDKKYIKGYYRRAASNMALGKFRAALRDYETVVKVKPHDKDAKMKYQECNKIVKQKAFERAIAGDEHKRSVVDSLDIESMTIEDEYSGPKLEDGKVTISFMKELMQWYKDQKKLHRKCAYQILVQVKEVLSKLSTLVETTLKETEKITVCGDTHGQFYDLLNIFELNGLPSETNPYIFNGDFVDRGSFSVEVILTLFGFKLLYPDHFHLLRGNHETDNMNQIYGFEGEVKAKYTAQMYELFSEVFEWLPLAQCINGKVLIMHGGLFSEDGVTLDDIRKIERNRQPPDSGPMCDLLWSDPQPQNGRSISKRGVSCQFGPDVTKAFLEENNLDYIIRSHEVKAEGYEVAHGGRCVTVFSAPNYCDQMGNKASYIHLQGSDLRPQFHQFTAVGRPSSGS
Chain of Serine/threonine-protein phosphatase PP1-alpha catalytic subunit (P62136 whole entry): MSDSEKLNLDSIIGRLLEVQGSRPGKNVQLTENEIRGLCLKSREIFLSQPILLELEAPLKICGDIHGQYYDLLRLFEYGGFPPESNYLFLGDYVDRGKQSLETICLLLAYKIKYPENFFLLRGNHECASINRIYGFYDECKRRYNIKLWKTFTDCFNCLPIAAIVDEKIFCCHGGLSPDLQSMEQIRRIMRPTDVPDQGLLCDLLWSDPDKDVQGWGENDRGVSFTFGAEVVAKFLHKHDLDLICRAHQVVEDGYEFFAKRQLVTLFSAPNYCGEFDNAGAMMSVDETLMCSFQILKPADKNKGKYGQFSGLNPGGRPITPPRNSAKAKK

Turning to `CC(C)CC(=O)NC(c1cccs1)c1ccc2cccnc2c1O` (stereo not given), the EC50 in the assay “cells” is 6.65 µM (active).
For the compound `CCOC(=O)c1ccc(NC2=CC(=O)C(=O)c3ccccc32)cc1`, the IC50 on Genome polyprotein is > 100 µM (active). The CC50 in the assay with Vero was 22.3 µM (active). Besides, the AC50 in the assay with A-375 was 6.65 µM (active).
With `OC(CNCCC1C=Nc2ccccc21)Cn1c2ccc(Cl)cc2c2cc(Cl)ccc21` (stereo not given), the EC50 at Insulin-degrading enzyme was > 54.7 µM (inactive); in [2], 9.1 µM (active). In addition, the AC50 in assay [1] is 6.52 µM (active); at CAAX prenyl protease 2, 79.3 µM (active).
Take `NC1CCC(Nc2nc(Cl)cc(-c3c[nH]c4ncccc34)n2)CC1` (stereo not given): in assay [3], the Ki is 0.0316 µM (active) and the pKi was 7.5.
For the compound `COc1ccc(C(=O)c2nccc3cc(OC)c(OC)cc23)cc1OC`, the IC50 in assay [4] is 19.6 µM (not active); in assay [5], > 67 µM (not active); in assay [6] it was 2.47 µM (active).
Turning to `Cc1ccccc1-c1cc2c(nn1)-c1ccccc1C2=O`, in assay [7], the IC50 is 32 µM (inactive). Further, in assay [8], the CC50 was 9.21 µM (active).
